Laboratory results taken from patent publication US8802694B2, “3,6-diazabicyclo[3.1.1]heptanes as neuronal nicotinic acetycholine receptor ligands” (Targacept, Inc., priority 2009, dated 2014).
Like-named read-outs stand apart in the source and are kept apart here.

How the values were obtained:
Human α4β2 = target: T1, Human α4β2 (Homo sapiens, UniProt P17787+P43681); experiment: Competition binding to human α4β2 receptors in membranes of SH-EP1/human α4β2 cells ([3H]-nicotine); settings: membrane competition binding
T1 construct: host or cells: SH-EP1

Rat α4β2 = target: T2, Rat α4β2 (Rattus norvegicus, UniProt P09483+P12390); experiment: Competition binding to rat α4β2 receptors in rat cortical membranes; settings: rat cortex membranes
T2 construct: Rat cortices were obtained from Analytical Biological Services; tissue Analytical Biological Services, Incorporated (ABS, Wilmington, Del.); host or cells: rat cortex (female Sprague-Dawley)
Protocol: Preparation of membranes from rat tissues. Rat cortices were obtained from Analytical Biological Services, Incorporated (ABS, Wilmington, Del.). Tissues were dissected from female Sprague-Dawley rats, frozen and shipped on dry ice. Tissues were stored at −20° C. until needed for membrane preparation. […] The resulting homogenate was centrifuged at 40,000 g for 20 minutes at 4° C. and the resulting pellet was resuspended in 20 volumes of ice-cold water. After 60-minute incubation at 4° C., a new pellet was collected by centrifugation at 40,000 g for 20 minutes at 4° C. The final pellet was resuspended in preparative buffer and stored at −20° C. On the day of the assay, tissue was thawed, centrifuged at 40,000 g for 20 minutes and then resuspended in PBS (Dulbecco's Phosphate Buffered Saline, Life Technologies, pH 7.4) to a final concentration of 2-3 mg protein/mL. Protein concentrations were determined using the Pierce BCA Protein Assay kit (Pierce Biotechnology, Rockford, Ill.), with bovine serum albumin as the standard.
Competition binding to receptors in membrane preparations. […] In brief, membranes were reconstituted from frozen stocks (approximately 0.2 mg protein) and incubated for 2 h on ice in […] assay buffer (PBS) in the presence of competitor compound (0.001 nM to […]) and radioligand. [^3H]-nicotine (L-(−)-[N-methyl-3H]-nicotine, 69.5 Ci/mmol, Perkin-Elmer Life Sciences) was used for human α4β2 binding studies. [^3H]-epibatidine (52 Ci/mmol, Perkin-Elmer Life Sciences) was used for binding studies at the other receptor subtypes. […] Filters were washed 3 times and the radioactivity retained was determined by liquid scintillation counting.
Binding data analysis. Binding data were expressed as percent total control binding. Replicates for each point were averaged and plotted against the log of drug concentration.

α6β3β4α5 = target: T3, α6β3β4α5 (Homo sapiens, UniProt P30926+Q15825); experiment: Competition binding to α6β3β4α5 receptors in membranes of SH-EP1/α6β3β4α5 cells ([3H]-epibatidine); settings: membrane competition binding, read-out: α6β3β4α5 Ki
T3 construct: host or cells: SH-EP1

SMILES | Ki (Human α4β2; read-out: Human α4β2 Ki) [nM] | also measured
O=C([C@@H]1CCCO1)N1CC2CC(C1)N2 | 370 | –
O=C(N1CC2CC(C1)N2)C1(C(F)(F)F)CCC1 | 6300 | –
CC1(C)CC(C(=O)N2CC3CC(C2)N3)C1 | – | Ki (Rat α4β2; read-out: Rat α4β2 Ki): 520 nM; Ki (Human α4β2; Human α4β2 Ki): 69 nM
O=C(CC1CCCO1)N1CC2CC(C1)N2 (stereo not drawn) | 2900 | –
CC(=O)NCCC(=O)N1CC2CC(C1)N2 | 3400 | –
CC(=O)NCCCC(=O)N1CC2CC(C1)N2 | 1900 | –
O=C([C@H]1CCCO1)N1CC2CC(C1)N2 | 400 | –
Cc1nocc1C(=O)N1CC2CC(C1)N2 | – | Ki (Rat α4β2; Rat α4β2 Ki): 60 nM; Ki (Human α4β2; Human α4β2 Ki): 53 nM
CC(C)CC(=O)N1CC2CC(C1)N2 | – | Ki (Rat α4β2; Rat α4β2 Ki): 70 nM; Ki (Human α4β2; Human α4β2 Ki): 34 nM
O=C(C1CC=CCC1)N1CC2CC(C1)N2 (stereo not drawn) | 120 | Ki (Rat α4β2; read-out: Rat α4β2 Ki): 390 nM
O=C(c1cnc(Cl)c(Cl)c1)N1CC2CC(C1)N2 | 1500 | –
Cc1cc(C(=O)N2CC3CC(C2)N3)no1 | 1100 | –
O=C(CC1C=CCC1)N1C2CNCC1C2 (stereo not drawn) | 150 | Ki (Rat α4β2; Rat α4β2 Ki): 71 nM
O=C(C1Cc2ccccc2C1)N1C2CNCC1C2 | 3000 | –
O=C(COCc1ccccc1)N1C2CNCC1C2 | 1400 | –
O=C(CCOc1ccc(F)cc1)N1C2CNCC1C2 | 1200 | –
O=C(C1Cc2ccccc21)N1C2CNCC1C2 (stereo not drawn) | 9400 | –
CO[C@H](C(=O)N1C2CNCC1C2)c1ccccc1 | 7100 | –
O=C(Cc1c[nH]c2ccccc12)N1C2CNCC1C2 | 2200 | –
O=C(COc1ccc(F)cc1)N1C2CNCC1C2 | 1300 | –
O=C(CC1CCCO1)N1C2CNCC1C2 (stereo not drawn) | 2000 | –
O=C([C@@H]1CCCO1)N1C2CNCC1C2 | 750 | –

SMILES | Ki (Human α4β2; read-out: Human α4β2 Ki) [nM] | also measured
O=C(CC1CCOCC1)N1C2CNCC1C2 | 3300 | –
Cn1c(C(=O)N2C3CNCC2C3)cc2ccccc21 | 2900 | –
O=C(C1CCOCC1)N1C2CNCC1C2 | 2000 | –
O=C(C1CC=CC1)N1CC2CC(C1)N2 | – | Ki (Rat α4β2; Rat α4β2 Ki): 260 nM; Ki (Human α4β2; Human α4β2 Ki): 37 nM
COCC(=O)N1CC2CC(C1)N2 | – | Ki (Rat α4β2; Rat α4β2 Ki): 50 nM; Ki (Human α4β2; Human α4β2 Ki): 79 nM
CCC(C)C(=O)N1CC2CC(C1)N2 (stereo not drawn) | 150 | Ki (Rat α4β2; read-out: Rat α4β2 Ki): 240 nM
O=C(C1CNC1)N1CC2CC(C1)N2 | 430 | –
O=C(C1CC2CCC1C2)N1CC2CC(C1)N2 (stereo not drawn) | – | Ki (Rat α4β2; read-out: Rat α4β2 Ki): 220 nM; Ki (Human α4β2; Human α4β2 Ki): 60 nM
O=C(c1ccnc(Cl)c1)N1CC2CC(C1)N2 | 450 | –
O=C(C1CCCC1)N1CC2CC(C1)N2 | – | Ki (Rat α4β2; Rat α4β2 Ki): 77 nM; Ki (Human α4β2; Human α4β2 Ki): 170 nM
O=C(c1cc(Cl)cc(Cl)c1)N1CC2CC(C1)N2 | 3300 | –
O=C(C1CCC1)N1CC2CC(C1)N2 | – | Ki (Rat α4β2; Rat α4β2 Ki): 6.8 nM; Ki (Human α4β2; Human α4β2 Ki): 28 nM
O=C(C1CC=CC1)N1C2CNCC1C2 | 810 | –
COCC(=O)N1C2CNCC1C2 | 410 | –
CCC(C)C(=O)N1C2CNCC1C2 (stereo not drawn) | 290 | –
O=C(C1CC2CCC1C2)N1C2CNCC1C2 (stereo not drawn) | 1700 | –
O=C(c1ccnc(Cl)c1)N1C2CNCC1C2 | 970 | –
CC1(C)C(C(=O)N2C3CNCC2C3)C1(C)C | 11000 | –
CC1CC1C(=O)N1C2CNCC1C2 (stereo not drawn) | – | Ki (Rat α4β2; Rat α4β2 Ki): 34 nM; Ki (Human α4β2; Human α4β2 Ki): 46 nM
O=C(C1CCCC1)N1C2CNCC1C2 | 420 | –
O=C(c1cc(Cl)cc(Cl)c1)N1C2CNCC1C2 | 1200 | Ki (α6β3β4α5): 14 µM
Cc1cc(C(=O)N2C3CNCC2C3)no1 | – | Ki (Rat α4β2; Rat α4β2 Ki): 50 nM; Ki (Human α4β2; Human α4β2 Ki): 100 nM

SMILES | Ki (Human α4β2; read-out: Human α4β2 Ki) [nM] | also measured
Cc1ncoc1C(=O)N1C2CNCC1C2 | 140 | Ki (Rat α4β2; read-out: Rat α4β2 Ki): 250 nM
Cc1nocc1C(=O)N1C2CNCC1C2 | 1100 | –
O=C(c1cnco1)N1C2CNCC1C2 | – | Ki (Rat α4β2; Rat α4β2 Ki): 17 nM; Ki (Human α4β2; Human α4β2 Ki): 72 nM
CC(C)C(=O)N1C2CNCC1C2 | 260 | –
CC(C)CC(=O)N1C2CNCC1C2 | 120 | Ki (Rat α4β2; Rat α4β2 Ki): 59 nM
O=C(C1CC=CCC1)N1C2CNCC1C2 (stereo not drawn) | 1200 | –
CC1(C)CC(C(=O)N2C3CNCC2C3)C1 | 760 | –
O=C(CC1C=CCC1)N1CC2CC(C1)N2 (stereo not drawn) | – | Ki (Rat α4β2; Rat α4β2 Ki): 34 nM; Ki (Human α4β2; Human α4β2 Ki): 11 nM
O=C(CC1CCCC1)N1CC2CC(C1)N2 | 440 | –
O=C(C1Cc2ccccc2C1)N1CC2CC(C1)N2 | 800 | –
O=C(COCc1ccccc1)N1CC2CC(C1)N2 | 1000 | –
O=C(CCOc1ccc(F)cc1)N1CC2CC(C1)N2 | 660 | –
O=C(C1Cc2ccccc21)N1CC2CC(C1)N2 (stereo not drawn) | 2000 | –
CO[C@H](C(=O)N1CC2CC(C1)N2)c1ccccc1 | 950 | –
O=C(CC1CCOC1)N1CC2CC(C1)N2 (stereo not drawn) | 240 | –
O=C(Cc1c[nH]c2ccccc12)N1CC2CC(C1)N2 | 750 | –
O=C(COc1ccc(F)cc1)N1CC2CC(C1)N2 | 360 | –
O=C(CC1CCOCC1)N1CC2CC(C1)N2 | 2800 | –
Cn1c(C(=O)N2CC3CC(C2)N3)cc2ccccc21 | 420 | –
O=C(C1CCOCC1)N1CC2CC(C1)N2 | 320 | –
O=C(CC1CC1)N1CC2CC(C1)N2 | – | Ki (Rat α4β2; Rat α4β2 Ki): 17 nM; Ki (Human α4β2; Human α4β2 Ki): 64 nM
O=C([C@H]1C[C@H]1F)N1C2CNCC1C2 | – | Ki (Rat α4β2; Rat α4β2 Ki): 0.89 nM; Ki (Human α4β2; Human α4β2 Ki): 3.7 nM

SMILES | Ki (Human α4β2; read-out: Human α4β2 Ki) [nM] | also measured
O=C([C@H]1C[C@@H]1F)N1C2CNCC1C2 | – | Ki (Rat α4β2; Rat α4β2 Ki): 1 nM; Ki (Human α4β2; Human α4β2 Ki): 2.2 nM
O=C(COc1ccc(Cl)c(Cl)c1)N1CC2CC(C1)N2 | 330 | Ki (α6β3β4α5): 0.7 µM
O=C(NCc1ccc(Cl)cc1)N1C2CNCC1C2 | 6500 | Ki (α6β3β4α5): 3.4 µM
O=C(NCc1ccc(Cl)cc1Cl)N1C2CNCC1C2 | 1100 | Ki (α6β3β4α5): 21 µM
O=C(NCc1ccc(Cl)c(Cl)c1)N1C2CNCC1C2 | 3100 | Ki (α6β3β4α5): 5.9 µM
O=C(C1C2C3CCC(C3)C12)N1CC2CC(C1)N2 (stereo not drawn) | 1300 | Ki (α6β3β4α5): 22 µM
CCC1(CC)CC1C(=O)N1C2CNCC1C2 (stereo not drawn) | 850 | Ki (α6β3β4α5): 4.4 µM
C[C@@H]1C[C@@H]1C(=O)N1CC2CC(C1)N2 | 22 | –
O=C(OCCF)N1CC2CC(C1)N2 [3-(2-fluoroethoxy)carbonyl-3,6-diazabicyclo[3.1.1]heptane] | – | Ki (Rat α4β2; Rat α4β2 Ki): 52 nM; Ki (Human α4β2; Human α4β2 Ki): 5.9 nM
COCCC(=O)N1CC2CC(C1)N2 [3-(2-methoxyethyl)carbonyl-3,6-diazabicyclo[3.1.1]heptane] | – | Ki (Human α4β2; Human α4β2 Ki): 72 nM
O=C(c1ccno1)N1CC2CC(C1)N2 [3-(isoxazol-5-yl)carbonyl-3,6-diazabicyclo[3.1.1]heptane] | 150 | –
O=C(C1CCOC1)N1CC2CC(C1)N2 (stereo not drawn) [3-(tetrahydrofuran-3-yl)carbonyl-3,6-diazabicyclo[3.1.1]heptane] | 270 | –
CC(C)OC(=O)N1CC2CC(C1)N2 [3-isopropoxycarbonyl-3,6-diazabicyclo[3.1.1]heptane] | 130 | –
COCCOC(=O)N1CC2CC(C1)N2 [3-methoxyethoxycarbonyl-3,6-diazabicyclo[3.1.1]heptane] | 120 | –
CC(=O)N1CC2CC(C1)N2 [3-methylcarbonyl-3,6-diazabicyclo[3.1.1]heptane] | – | Ki (Human α4β2; Human α4β2 Ki): 170 nM
CCCOC(=O)N1CC2CC(C1)N2 [3-propoxycarbonyl-3,6-diazabicyclo[3.1.1]heptane] | – | Ki (Human α4β2; Human α4β2 Ki): 24 nM
O=C(c1ccc(Br)o1)N1C2CNCC1C2 [6-(2-bromorofuran-5-yl)carbonyl-3,6-diazabicyclo[3.1.1]heptane] | – | Ki (Rat α4β2; read-out: Rat α4β2 Ki): 260 nM; Ki (Human α4β2; Human α4β2 Ki): 66 nM
O=C(c1ccc(Cl)o1)N1C2CNCC1C2 [6-(2-chlorofuran-5-yl)carbonyl-3,6-diazabicyclo[3.1.1]heptane] | – | Ki (Rat α4β2; Rat α4β2 Ki): 44 nM; Ki (Human α4β2; Human α4β2 Ki): 38 nM
COCCC(=O)N1C2CNCC1C2 [6-(2-methoxyethyl)carbonyl-3,6-diazabicyclo[3.1.1]heptane] | 370 | –
O=C(C1CCC1)N1C2CNCC1C2 [6-cyclobutylcarbonyl-3,6-diazabicyclo[3.1.1]heptane] | – | Ki (Rat α4β2; Rat α4β2 Ki): 26 nM; Ki (Human α4β2; Human α4β2 Ki): 14 nM
